Patent US10780092B2, “Fused pyrazine derivatives useful as soluble guanylate cyclase stimulators” (Merck Sharp & Dohme Corp., priority 2016, dated 2020)

Tests used:
[1] = molecular target: human recombinant sGC enzyme (Homo sapiens (Human), UniProt Q02108+Q02153); assay: SEC competition binding assay with [3H] Compound B radioligand; conditions: displacement of 1.6 nM [3H] Compound B, 24 h at 37° C.
Experimental: The binding potencies of sGC compounds to the human recombinant sGC enzyme were determined in a Size Exclusion Chromatography (SEC) competition binding assay using [^3H] Compound B as the radioligand. [^3H] Compound B was prepared using a standardardized tritium exchange procedure. The parent (non-labeled) molecule was first iodinated then a Pd-catalyzed iodine to tritium exchange provided the labeled compound.
Method: The binding buffer was composed of 50 mM triethanolamine pH 7.4, 3 mM MgCl2, 0.025% BSA, 2 mM dithiothreitol (DTT), 300 μM DETA/NO and 400 μM GTP. Assays were conducted in 96-well plates in a total volume of 200 μL. Recombinant human sGC protein (40 ng) was incubated with 1.6 nM [^3H] Compound B for 24 h at 37° C. in the presence and absence of various concentrations of sGC testing compounds delivered as DMSO solutions to give a total of 1% organic solvent content. Non-specific binding was defined by competition with 1 μM of Compound B. After the incubation period, the binding mixtures were loaded onto the gel-filtration plate (ThermoFischer Cat. No. 89808) pre-equilibrated with binding buffer and spun at 1000×g for 3 min at 4° C. on a Bench top centrifuge. The collected eluates in White Frame Clear Well Isoplates (Perkin Elmer Cat #6005040) received 100 μl of UltimaGold scintillation cocktail. The sealed plates were shaken vigorously and span, and counted after 6 hs with a Wallac Microbeta TriLux 1450 LSC & Luminescence Counter (Perkin Elmer). Data from competition experiments were analyzed to determine Ki values using one site—fit Ki equation.

sGC α1/β1 heterodimer = sGC α1/β1 heterodimer (Homo sapiens (Human), UniProt Q02108+Q02153); assay: Cell-based sGC functional assay (CASA assay), cGMP by HTRF; conditions: CHO-K1/sGC cells; for Emax: CHO-K1, cGMP production as percentage of maximum of compound A (set to 100%), read-out: % Activation; for EC50: inflection point of cGMP production, 4P fit, read-out: IP
From the text: Cell-Based sGC Functional Assay (Cyclic GMP Assay for sGC Activator: CASA Assay)
Soluble guanylate cyclase (sGC) is a heme-containing enzyme that converts GTP to secondary messenger cGMP. Increases in cGMP levels affect several physiological processes including vasorelaxation through multiple downstream pathways. […] Heme-dependent activators (HDAs) preferentially target sGC containing a ferrous heme group. To determine the effect of sGC activators on enzyme activity, the CASA assay was developed to monitor the generation of cGMP in a cell line that stably expresses the heterodimeric sGC protein.
A CHO-K1 cell line stably expressing the sGC α1/β1 heterodimer was generated using a standard transfection protocol. The cDNA's encoding human sGC α1 and β1 were cloned in pIRES hyg and pIRES neo respectively using standard molecular biology techniques. The plasmids pIRES hyg and pIRES neo plasmids were obtained from Clontech. CHO-K1 cells were transfected with plasmids pIREShyg-hsGCα1 and pIRESneo-hsGCβ1 simultaneously using FUGENE reagent. Clones that stably express both subunits were selected with hygromycin and neomycin for ˜2 weeks. The clone chosen for the assay was designated CHO-K1/sGC. CHO-K1/sGC cells were maintained in F-K12 medium containing 10% heat-inactivated Fetal Bovine Serum (FBS), 100 μg/mL penicillin/streptomycin, 0.5 mg/mL hygromycin and 0.25 mg/mL G418. The cells were then cryopreserved in liquid nitrogen. On the day of the assay, the cells were thawed and resuspended in EBSS Assay Buffer (Sigma, E3024) supplemented with 5 mM MgCl2, 10 mM HEPES (4-(2-hydroxyethyl)piperazine-1-ethanesulfonic acid) and 0.05% BSA (bovine serum albumin) and cell density was then adjusted to 2.25×10^5/mL with EAB. IBMX (3-isobutyl-1-methylxanthin, 0.5 mM) was added to inhibit degradation of cGMP. Compounds were diluted from DMSO stock solutions and added to the assay at a final DMSO concentration of 2.5%. Cells were pre-incubated in the presence and absence of 1 μM of Diethylenetriamine/nitric oxide adduct (DETA-NO; Sigma, 17018) for 30 min at 25° C. Compounds were subsequently added and incubated for 1 hr at 37° C. At the end of the incubation period, the reaction was terminated and the cells were lysed with the detection reagents from Cisbio Kits. The level of intracellular cGMP was determined using an HTRF-based assay kit (CisBio, 62GM2PEC), which detects the displacement of a fluorescence labeled cGMP from its specific antibody. The cGMP produced by test compounds was directly compared to the maximum cGMP production (this value was set to equal 100% activation) of the published sGC compound A (Example 1 in WO 2010/065275, published Jun. 10, 2010).
The test compounds' activities were then expressed as a percentage of compound A, the standard in every experiment. This percent activation was calculated either in the presence or absence of DETA-NO which was then plotted. Inflection points (IP) and maximum fold induction was derived using Abase analysis software for 4P fit.

SMILES: CC1(c2ccc(C(F)(F)F)c(O)c2)C(=O)Nc2nc(-c3cn4ccnc4c(Cc4cc(F)cc(F)c4F)n3)nc(N)c21 (stereo not drawn) [Example 33-B, 4-Amino-5-(3-hydroxy-4-(trifluoromethyl)phenyl)-5-methyl-2-{8-[(2,3,5-trifluorophenyl)methyl]imidazo[1,2-a]pyrazin-6-yl}-5,7-dihydro-6H-pyrrolo[2,3-d]pyrimidin-6-one]
- Ki [1]: 0.000312 µM
- Emax (sGC α1/β1 heterodimer): 111%
- EC50 (sGC α1/β1 heterodimer): 0.26 µM

SMILES: CC1(c2cccc(O)c2)C(=O)Nc2nc(-c3cn4ccnc4c(Cc4ccc(F)cc4F)n3)nc(N)c21 (stereo not drawn) [Example 34-B, 4-Amino-2-{8-[(2,4-difluorophenyl)methyl]imidazo[1,2-a]pyrazin-6-yl}-5-(3-hydroxyphenyl)-5-methyl-5,7-dihydro-6H-pyrrolo[2,3-d]pyrimidin-6-one]
- Ki [1]: 0.000317 µM
- Emax (sGC α1/β1 heterodimer): 111%
- EC50 (sGC α1/β1 heterodimer): 0.243 µM

SMILES: CC1(c2ccc(O)c(Cl)c2)C(=O)Nc2nc(-c3cn4ccnc4c(Cc4cccc(F)c4)n3)nc(N)c21 (stereo not drawn) [Example 35-B, 4-Amino-5-(3-chloro-4-hydroxyphenyl)-2-{8-[(3-fluorophenyl)methyl]imidazo[1,2-a]pyrazin-6-yl}-5-methyl-5,7-dihydro-6H-pyrrolo[2,3-d]pyrimidin-6-one]
- Ki [1]: 0.000333 µM
- Emax (sGC α1/β1 heterodimer): 147%
- EC50 (sGC α1/β1 heterodimer): 0.402 µM

SMILES: CC1(c2ccc(Cl)c(O)c2)C(=O)Nc2nc(-c3cn4ccnc4c(Cc4cc(F)cc(F)c4)n3)nc(N)c21 (stereo not drawn) [Example 36-A, 4-Amino-5-(4-chloro-3-hydroxyphenyl)-2-{8-[(3,5-difluorophenyl)methyl]imidazo[1,2-a]pyrazin-6-yl}-5-methyl-5,7-dihydro-6H-pyrrolo[2,3-d]pyrimidin-6-one]
- Ki [1]: 0.000393 µM
- Emax (sGC α1/β1 heterodimer): 116%
- EC50 (sGC α1/β1 heterodimer): 0.381 µM

SMILES: CC1(c2ccc(F)c(O)c2)C(=O)Nc2nc(-c3cn4ccnc4c(Cc4ccc(F)cc4)n3)nc(N)c21 (stereo not drawn) [Example 37-B, 4-Amino-5-(4-fluoro-3-hydroxyphenyl)-2-{8-[(4-fluorophenyl)methyl]imidazo[1,2-a]pyrazin-6-yl}-5-methyl-5,7-dihydro-6H-pyrrolo[2,3-d]pyrimidin-6-one]
- Ki [1]: 0.000427 µM
- Emax (sGC α1/β1 heterodimer): 117%
- EC50 (sGC α1/β1 heterodimer): 0.069 µM

SMILES: CCCCc1nc(-c2nc(N)c3c(n2)NC(=O)C3(C)c2cc(O)c(Cl)c(F)c2)cn2ccnc12 (stereo not drawn) [Example 39-B, 4-Amino-2-(8-butylimidazo[1,2-a]pyrazin-6-yl)-5-(4-chloro-3-fluoro-5-hydroxyphenyl)-5-methyl-5,7-dihydro-6H-pyrrolo[2,3-d]pyrimidin-6-one]
- Ki [1]: 0.000446 µM
- Emax (sGC α1/β1 heterodimer): 101%
- EC50 (sGC α1/β1 heterodimer): 0.873 µM

SMILES: CC1(c2cc(O)c(Cl)cn2)C(=O)Nc2nc(-c3cn4ccnc4c(Cc4cc(F)cc(F)c4)n3)nc(N)c21 (stereo not drawn) [Example 40-B, 4-Amino-5-(5-chloro-4-hydroxypyridin-2-yl)-2-{8-[(3,5-difluorophenyl)methyl]imidazo[1,2-a]pyrazin-6-yl}-5-methyl-5,7-dihydro-6H-pyrrolo[2,3-d]pyrimidin-6-one]
- Ki [1]: 0.000479 µM
- Emax (sGC α1/β1 heterodimer): 88%
- EC50 (sGC α1/β1 heterodimer): 0.368 µM

SMILES: CC1(c2ccc(O)c(F)c2)C(=O)Nc2nc(-c3cn4ncnc4c(Cc4ccc(F)cc4)n3)nc(N)c21 (stereo not drawn) [Example 41-B, 4-Amino-5-(3-fluoro-4-hydroxyphenyl)-2-{8-[(4-fluorophenyl)methyl]-[1,2,4]triazolo[1,5-a]pyrazin-6-yl}-5-methyl-5,7-dihydro-6H-pyrrolo[2,3-d]pyrimidin-6-one]
- Ki [1]: 0.00049 µM
- Emax (sGC α1/β1 heterodimer): 136%
- EC50 (sGC α1/β1 heterodimer): 0.588 µM

SMILES: CCCCc1nc(-c2nc(N)c3c(n2)NC(=O)C3(C)c2cc(O)c(Cl)c(F)c2)cn2ncnc12 (stereo not drawn) [Example 42-B, 4-Amino-2-(8-butyl-[1,2,4]triazolo[1,5-a]pyrazin-6-yl)-5-(4-chloro-3-fluoro-5-hydroxyphenyl)-5-methyl-5,7-dihydro-6H-pyrrolo[2,3-d]pyrimidin-6-one]
- Ki [1]: 0.000496 µM
- Emax (sGC α1/β1 heterodimer): 170%
- EC50 (sGC α1/β1 heterodimer): 0.146 µM

SMILES: CC1(c2ccc(O)cc2)C(=O)Nc2nc(-c3cn4ccnc4c(Cc4ccc(F)cc4)n3)nc(N)c21 (stereo not drawn) [Example 43-B, 4-Amino-2-{8-[(4-fluorophenyl)methyl]imidazo[1,2-a]pyrazin-6-yl}-5-(4-hydroxyphenyl)-5-methyl-5,7-dihydro-6H-pyrrolo[2,3-d]pyrimidin-6-one]
- Ki [1]: 0.000457 µM
- Emax (sGC α1/β1 heterodimer): 101%
- EC50 (sGC α1/β1 heterodimer): 0.142 µM

SMILES: CC1(c2ccc(Cl)c(O)c2)C(=O)Nc2nc(-c3cn4ccnc4c(Cc4ccc(Cl)cc4)n3)nc(N)c21 (stereo not drawn) [Example 44-A, 4-Amino-5-(4-chloro-3-hydroxyphenyl)-2-{8-[(4-chlorophenyl)methyl]imidazo[1,2-a]pyrazin-6-yl}-5-methyl-5,7-dihydro-6H-pyrrolo[2,3-d]pyrimidin-6-one]
- Ki [1]: 0.000507 µM
- Emax (sGC α1/β1 heterodimer): 100%
- EC50 (sGC α1/β1 heterodimer): 0.46 µM

SMILES: Cc1cc(C2(C)C(=O)Nc3nc(-c4cn5ccnc5c(Cc5cccc(F)c5)n4)nc(N)c32)ccc1O (stereo not drawn) [Example 45-A, 4-Amino-2-{8-[(3-fluorophenyl)methyl]imidazo[1,2-a]pyrazin-6-yl}-5-(4-hydroxy-3-methylphenyl)-5-methyl-5,7-dihydro-6H-pyrrolo[2,3-d]pyrimidin-6-one]
- Ki [1]: 0.000565 µM
- Emax (sGC α1/β1 heterodimer): 120%
- EC50 (sGC α1/β1 heterodimer): 1.57 µM

SMILES: CC1(c2ccc(C(F)(F)F)c(O)c2)C(=O)Nc2nc(-c3cn4ccnc4c(Cc4cc(F)cc(F)c4)n3)nc(N)c21 (stereo not drawn) [Example 46-B, 4-Amino-2-{8-[(3,5-difluorophenyl)methyl]imidazo[1,2-a]pyrazin-6-yl}-5-(3-hydroxy-4-(trifluoromethyl)phenyl)-5-methyl-5,7-dihydro-6H-pyrrolo[2,3-d]pyrimidin-6-one]
- Ki [1]: 0.000691 µM
- Emax (sGC α1/β1 heterodimer): 117%
- EC50 (sGC α1/β1 heterodimer): 0.893 µM

SMILES: CC(C)CCc1nc(-c2nc(N)c3c(n2)NC(=O)C3(C)c2ccc(F)c(O)c2)cn2ccnc12 (stereo not drawn) [Example 47-B, 4-Amino-5-(4-fluoro-3-hydroxyphenyl)-2-(8-isopentylimidazo[1,2-a]pyrazin-6-yl)-5-methyl-5,7-dihydro-6H-pyrrolo[2,3-d]pyrimidin-6-one]
- Ki [1]: 0.000676 µM
- Emax (sGC α1/β1 heterodimer): 103%
- EC50 (sGC α1/β1 heterodimer): 0.07 µM

SMILES: CC1(c2cccc(O)c2)C(=O)Nc2nc(-c3cn4ccnc4c(Cc4cc(F)cc(F)c4)n3)nc(N)c21 (stereo not drawn) [Example 48-B, 4-Amino-2-{8-[(3,5-difluorophenyl)methyl]imidazo[1,2-a]pyrazin-6-yl}-5-(3-hydroxyphenyl)-5-methyl-5,7-dihydro-6H-pyrrolo[2,3-d]pyrimidin-6-one]
- Ki [1]: 0.000723 µM
- Emax (sGC α1/β1 heterodimer): 114%
- EC50 (sGC α1/β1 heterodimer): 0.198 µM

SMILES: CC1(c2ccc(Cl)c(O)n2)C(=O)Nc2nc(-c3cn4ccnc4c(CC4CCCCC4)n3)nc(N)c21 (stereo not drawn) [Example 49-A, 4-Amino-5-(5-chloro-6-hydroxypyridin-2-yl)-2-(8-(cyclohexylmethyl)imidazo[1,2-a]pyrazin-6-yl)-5-methyl-5,7-dihydro-6H-pyrrolo[2,3-d]pyrimidin-6-one]
- Ki [1]: 0.000746 µM
- Emax (sGC α1/β1 heterodimer): 111%
- EC50 (sGC α1/β1 heterodimer): 0.363 µM
